Common to all, as to assay: biochemical
Holding throughout (format): binding

Assay [1] deals with T1, panel of 442 kinases (Homo sapiens, UniProt P41743).
T1 construct: purchased Ambit Biosciences (scanMAXX KINOMEscan)
T1 sequence (P41743 1-596): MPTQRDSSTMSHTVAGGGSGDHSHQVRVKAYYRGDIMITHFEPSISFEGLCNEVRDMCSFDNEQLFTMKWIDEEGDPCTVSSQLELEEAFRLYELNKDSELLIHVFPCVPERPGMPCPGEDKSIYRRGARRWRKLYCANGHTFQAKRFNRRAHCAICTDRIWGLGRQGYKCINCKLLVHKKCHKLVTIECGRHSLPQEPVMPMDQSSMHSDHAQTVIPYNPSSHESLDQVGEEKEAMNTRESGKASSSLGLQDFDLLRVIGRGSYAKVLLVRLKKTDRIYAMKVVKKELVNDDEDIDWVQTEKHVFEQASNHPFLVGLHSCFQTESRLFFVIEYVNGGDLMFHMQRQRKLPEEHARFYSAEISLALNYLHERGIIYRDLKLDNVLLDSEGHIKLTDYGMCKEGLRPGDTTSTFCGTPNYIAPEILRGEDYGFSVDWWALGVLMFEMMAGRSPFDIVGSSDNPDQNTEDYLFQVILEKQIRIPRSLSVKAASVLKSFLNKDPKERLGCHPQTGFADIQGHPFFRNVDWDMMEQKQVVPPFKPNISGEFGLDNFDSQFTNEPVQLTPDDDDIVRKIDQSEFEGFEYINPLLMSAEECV
The following applies: kinase PRKCI; for remaining activity at 1 µM: read-out: PRKCI (% of control at 1 µM).

The target of assay [2] is T2, panel of 442 kinases (Homo sapiens, UniProt Q02750).
T2 construct: purchased Ambit Biosciences (scanMAXX KINOMEscan)
The following applies: kinase MEK1; for remaining activity at 1 µM: read-out: % of control at 1 µM.

For assay [3], the target named is T3, panel of 442 kinases (Homo sapiens, UniProt Q16566).
T3 construct: purchased Ambit Biosciences (scanMAXX KINOMEscan)
T3 sequence (Q16566 1-473): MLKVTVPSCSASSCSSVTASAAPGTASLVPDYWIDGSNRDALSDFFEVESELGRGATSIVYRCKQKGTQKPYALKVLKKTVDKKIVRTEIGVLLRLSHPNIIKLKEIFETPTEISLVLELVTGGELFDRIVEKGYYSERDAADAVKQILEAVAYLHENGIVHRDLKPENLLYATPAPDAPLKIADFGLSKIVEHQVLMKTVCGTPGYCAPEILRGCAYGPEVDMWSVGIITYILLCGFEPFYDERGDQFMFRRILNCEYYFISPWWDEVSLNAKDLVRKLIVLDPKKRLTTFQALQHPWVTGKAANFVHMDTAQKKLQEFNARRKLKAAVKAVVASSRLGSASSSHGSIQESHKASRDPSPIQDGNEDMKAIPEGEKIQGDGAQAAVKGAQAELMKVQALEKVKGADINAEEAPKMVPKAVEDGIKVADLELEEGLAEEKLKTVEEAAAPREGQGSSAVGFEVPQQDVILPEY
Conditions: CAMK4; for remaining activity at 1 µM: read-out: % of control at 1 µM.

Assay [4] deals with T4, panel of 442 kinases (Homo sapiens, UniProt Q92918).
T4 construct: purchased Ambit Biosciences (scanMAXX KINOMEscan)
Conditions: kinase HPK1; for remaining activity at 1 µM: read-out: % of control at 1 µM.

Assay [5] addresses T5, panel of 442 kinases (Homo sapiens, UniProt Q96BR1).
T5 construct: purchased Ambit Biosciences (scanMAXX KINOMEscan)
T5 sequence (Q96BR1 1-496): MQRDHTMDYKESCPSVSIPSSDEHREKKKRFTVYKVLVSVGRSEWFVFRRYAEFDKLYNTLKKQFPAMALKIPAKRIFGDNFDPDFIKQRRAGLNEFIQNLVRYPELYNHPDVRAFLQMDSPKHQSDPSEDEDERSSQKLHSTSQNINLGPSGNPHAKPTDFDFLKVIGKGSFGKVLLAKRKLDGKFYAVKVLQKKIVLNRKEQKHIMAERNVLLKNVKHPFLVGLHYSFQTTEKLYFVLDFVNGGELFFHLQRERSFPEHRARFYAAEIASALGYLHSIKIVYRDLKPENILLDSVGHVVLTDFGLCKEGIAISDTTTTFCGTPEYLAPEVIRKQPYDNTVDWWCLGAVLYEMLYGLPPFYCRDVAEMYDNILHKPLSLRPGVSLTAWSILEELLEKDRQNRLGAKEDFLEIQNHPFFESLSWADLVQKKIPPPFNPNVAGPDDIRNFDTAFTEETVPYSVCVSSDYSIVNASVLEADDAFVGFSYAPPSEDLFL
Conditions: kinase SGK3; for remaining activity at 1 µM: read-out: SGK3 (% of control at 1 µM).

For assay [6], the target named is T6, panel of 442 kinases (Homo sapiens, UniProt Q96L34).
T6 construct: purchased Ambit Biosciences (scanMAXX KINOMEscan)
T6 sequence (Q96L34 1-752): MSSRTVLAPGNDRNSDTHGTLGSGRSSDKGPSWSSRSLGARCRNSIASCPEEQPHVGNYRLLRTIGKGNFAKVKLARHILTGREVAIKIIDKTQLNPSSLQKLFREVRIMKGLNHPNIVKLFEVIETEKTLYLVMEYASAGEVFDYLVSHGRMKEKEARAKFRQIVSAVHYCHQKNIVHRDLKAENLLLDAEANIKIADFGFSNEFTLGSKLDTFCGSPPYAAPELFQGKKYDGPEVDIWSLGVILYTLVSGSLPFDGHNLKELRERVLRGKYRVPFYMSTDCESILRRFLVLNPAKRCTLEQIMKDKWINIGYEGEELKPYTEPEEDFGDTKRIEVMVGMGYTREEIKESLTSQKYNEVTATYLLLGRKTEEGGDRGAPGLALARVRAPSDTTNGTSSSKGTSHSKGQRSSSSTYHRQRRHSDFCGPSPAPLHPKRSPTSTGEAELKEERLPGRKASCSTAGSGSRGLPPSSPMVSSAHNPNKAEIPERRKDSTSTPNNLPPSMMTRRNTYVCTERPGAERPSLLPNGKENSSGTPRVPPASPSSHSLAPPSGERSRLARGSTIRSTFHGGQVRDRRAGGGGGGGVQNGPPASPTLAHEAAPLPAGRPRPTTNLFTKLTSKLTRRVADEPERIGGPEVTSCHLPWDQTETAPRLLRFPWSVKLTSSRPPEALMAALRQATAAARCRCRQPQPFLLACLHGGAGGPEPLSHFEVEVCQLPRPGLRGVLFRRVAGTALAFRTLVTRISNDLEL
The following applies: kinase MARK4; for remaining activity at 1 µM: read-out: % of control at 1 µM.

Assay [7] concerns the target T7, panel of 442 kinases (Homo sapiens, UniProt Q9UKE5).
T7 construct: purchased Ambit Biosciences (scanMAXX KINOMEscan)
Conditions: kinase TNIK; for remaining activity at 1 µM: read-out: TNIK (% of control at 1 µM).

Setting [8] is: 10 µM, read-out: % of control at 10 µM.

The values below come from PMC5564600 (Oncotarget, 2017).

T4 sequence (Q92918 whole entry): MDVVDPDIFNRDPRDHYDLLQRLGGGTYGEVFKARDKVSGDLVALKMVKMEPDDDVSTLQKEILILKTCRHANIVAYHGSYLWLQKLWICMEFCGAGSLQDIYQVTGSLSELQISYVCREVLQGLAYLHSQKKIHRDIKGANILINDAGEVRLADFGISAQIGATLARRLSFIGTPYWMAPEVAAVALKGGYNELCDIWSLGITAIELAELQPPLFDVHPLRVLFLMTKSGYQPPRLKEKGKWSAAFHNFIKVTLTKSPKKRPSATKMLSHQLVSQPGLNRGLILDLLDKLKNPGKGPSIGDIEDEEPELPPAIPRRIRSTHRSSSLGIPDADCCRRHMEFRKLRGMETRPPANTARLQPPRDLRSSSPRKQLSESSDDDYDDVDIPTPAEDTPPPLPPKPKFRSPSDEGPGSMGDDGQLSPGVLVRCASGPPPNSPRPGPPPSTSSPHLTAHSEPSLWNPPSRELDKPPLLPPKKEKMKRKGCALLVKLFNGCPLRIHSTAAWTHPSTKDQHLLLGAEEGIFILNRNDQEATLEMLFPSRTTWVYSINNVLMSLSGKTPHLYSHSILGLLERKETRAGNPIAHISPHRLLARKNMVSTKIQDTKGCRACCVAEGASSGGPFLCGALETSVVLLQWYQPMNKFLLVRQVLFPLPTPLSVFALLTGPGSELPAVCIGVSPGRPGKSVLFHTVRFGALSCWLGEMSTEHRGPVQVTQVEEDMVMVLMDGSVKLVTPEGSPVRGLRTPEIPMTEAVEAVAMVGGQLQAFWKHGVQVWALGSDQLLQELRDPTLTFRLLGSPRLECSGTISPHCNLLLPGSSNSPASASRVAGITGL
T7 sequence (Q9UKE5 whole entry): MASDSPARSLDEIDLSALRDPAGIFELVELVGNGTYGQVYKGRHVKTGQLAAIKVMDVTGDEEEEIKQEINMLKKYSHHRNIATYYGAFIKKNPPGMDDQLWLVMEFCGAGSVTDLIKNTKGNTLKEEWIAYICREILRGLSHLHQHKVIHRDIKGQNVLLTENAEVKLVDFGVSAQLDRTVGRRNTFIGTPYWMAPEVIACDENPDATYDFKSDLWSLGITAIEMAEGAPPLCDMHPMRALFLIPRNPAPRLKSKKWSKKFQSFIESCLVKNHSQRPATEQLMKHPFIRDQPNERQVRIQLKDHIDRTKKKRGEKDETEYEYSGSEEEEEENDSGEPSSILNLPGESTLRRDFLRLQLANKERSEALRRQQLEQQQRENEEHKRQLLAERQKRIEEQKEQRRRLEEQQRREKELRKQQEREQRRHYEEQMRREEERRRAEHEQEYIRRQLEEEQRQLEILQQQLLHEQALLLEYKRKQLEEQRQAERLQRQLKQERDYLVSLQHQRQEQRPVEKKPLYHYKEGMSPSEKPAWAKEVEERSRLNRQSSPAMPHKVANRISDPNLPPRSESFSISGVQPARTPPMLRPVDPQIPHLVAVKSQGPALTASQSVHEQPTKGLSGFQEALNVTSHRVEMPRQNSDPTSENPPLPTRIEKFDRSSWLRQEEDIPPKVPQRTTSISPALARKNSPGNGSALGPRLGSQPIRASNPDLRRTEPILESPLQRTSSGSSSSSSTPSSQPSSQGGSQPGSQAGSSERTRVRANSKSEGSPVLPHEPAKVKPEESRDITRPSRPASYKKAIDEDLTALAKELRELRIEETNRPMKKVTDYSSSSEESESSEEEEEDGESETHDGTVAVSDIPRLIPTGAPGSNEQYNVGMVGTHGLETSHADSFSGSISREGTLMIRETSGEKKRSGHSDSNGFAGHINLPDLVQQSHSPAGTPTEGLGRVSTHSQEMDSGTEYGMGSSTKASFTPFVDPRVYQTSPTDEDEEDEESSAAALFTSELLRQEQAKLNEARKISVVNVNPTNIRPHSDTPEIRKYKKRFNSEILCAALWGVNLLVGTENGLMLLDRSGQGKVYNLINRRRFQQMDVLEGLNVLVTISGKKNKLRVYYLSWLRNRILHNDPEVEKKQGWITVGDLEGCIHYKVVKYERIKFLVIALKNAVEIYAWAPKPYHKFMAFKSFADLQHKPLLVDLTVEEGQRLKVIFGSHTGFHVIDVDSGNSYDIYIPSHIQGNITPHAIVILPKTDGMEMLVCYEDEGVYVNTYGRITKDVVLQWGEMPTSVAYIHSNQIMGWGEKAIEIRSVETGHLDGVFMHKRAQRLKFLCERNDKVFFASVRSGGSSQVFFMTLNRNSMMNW
T2 sequence (Q02750 whole entry): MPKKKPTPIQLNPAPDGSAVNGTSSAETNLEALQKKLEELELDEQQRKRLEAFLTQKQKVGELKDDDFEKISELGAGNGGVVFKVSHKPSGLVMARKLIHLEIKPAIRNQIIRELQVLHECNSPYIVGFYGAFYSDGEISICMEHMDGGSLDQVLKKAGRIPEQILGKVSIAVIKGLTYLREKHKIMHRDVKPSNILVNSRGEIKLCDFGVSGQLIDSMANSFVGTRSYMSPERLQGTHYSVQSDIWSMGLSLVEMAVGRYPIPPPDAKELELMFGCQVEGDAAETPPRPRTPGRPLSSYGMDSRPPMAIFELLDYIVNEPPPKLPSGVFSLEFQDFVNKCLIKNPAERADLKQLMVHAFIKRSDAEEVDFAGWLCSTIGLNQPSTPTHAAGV

With `Nc1cc(C(F)(F)F)c(-c2cc(N3CCOCC3)nc(N3CCOCC3)n2)cn1` [Buparlisib], the remaining activity at 1 µM was 90% at panel of 442 kinases [1]; 100% at panel of 442 kinases [2]; 89% at panel of 442 kinases [3]; 92% at panel of 442 kinases [4]; 79% at panel of 442 kinases [5]; 100% at panel of 442 kinases [6]. In addition, the remaining activity at 1 µM at panel of 442 kinases [7] stood at 100%. Besides, the remaining activity at 10 µM worked out at 100% at panel of 442 kinases [1] (10 µM, read-out: PRKCI (% of control at 10 µM)); 100% on panel of 442 kinases [2] (setting [8]); 100% at panel of 442 kinases [3] (setting [8]); 100% on panel of 442 kinases [4] (setting [8]); 100% at panel of 442 kinases [5] (10 µM, read-out: SGK3 (% of control at 10 µM)); 91% on panel of 442 kinases [6] (setting [8]). The remaining activity at 10 µM on panel of 442 kinases [7] (10 µM, read-out: TNIK (% of control at 10 µM)) was found to be 100%.
As for `Cn1c(=O)n(-c2ccc(C(C)(C)C#N)cc2)c2c3cc(-c4cnc5ccccc5c4)ccc3ncc21` [Dactolisib, 2-methyl-2-[4-(3-methyl-2-oxo-8-quinolin-3-yl-2,3-dihydroimidazo[4,5-c]quinolin-1-yl)-phenyl] propionitrile], the remaining activity at 1 µM came to 86% at panel of 442 kinases [1]; 94% on panel of 442 kinases [2]; 64% on panel of 442 kinases [4]; 100% on panel of 442 kinases [5]; 61% at panel of 442 kinases [6].
For `COc1ncc(-c2ccc3nccc(-c4ccnnc4)c3c2)cc1NS(=O)(=O)c1ccc(F)cc1F` [Omipalisib], the remaining activity at 1 µM on panel of 442 kinases [1] was determined as 100%; at panel of 442 kinases [2] it was 100%; at panel of 442 kinases [3], 100%; at panel of 442 kinases [4], 100%; at panel of 442 kinases [5], 92%; on panel of 442 kinases [6] it was 83%. Further, on panel of 442 kinases [7], the remaining activity at 1 µM worked out at 100%.
Consider `FC(F)c1nc2ccccc2n1-c1nc(N2CCOCC2)nc(N2CCOCC2)n1` [ZSTK474, 2-(difluoromethyl)-1-[4,6-di(4-morpholinyl)-1,3,5-triazin-2-yl]-1H-benzimidazole], for which the remaining activity at 1 µM at panel of 442 kinases [1] was found to be 100%; at panel of 442 kinases [2], 100%; on panel of 442 kinases [3], 92%; on panel of 442 kinases [4] it was 93%; on panel of 442 kinases [5] it was 87%; at panel of 442 kinases [6], 100%. Besides, at panel of 442 kinases [7], the remaining activity at 1 µM turned out to be 100%.
